Blank lines part the entries; values can stand above or below the compound they belong to.
Key:
[1] = system: Rapeseed LPAAT; experiment: LPAAT activity assay, rapeseed P2 membrane preparation; assay type: biochemical, Brassica napus; conditions: acyl-CoA donor varied, acceptor 12:0-LPA
Procedure: (§1) To assay for LPAAT activity, the sample is incubated with lysophosphatidic acid (LPA) and acyl-coenzyme A (acyl-CoA) substrates in buffered solution. The acyl substituents of the two substrates are chosen to correspond with the specificity of the enzyme being measured. For example, to measure activity of an LPAAT having preference for medium-chain substrates, lauroyl-LPA (lauroyl-lysophosphatidic acid) and lauroyl-CoA may be used, to measure activity of an LPAAT preferring longer-chain acyl groups, oleoyl-LPA and oleoyl-CoA may be used, to measure activity of an LPAAT preferring very-long chain substrate, erucyl-LPA and erucyl-CoA may be used, and so on, depending upon the type of LPAAT to be tested. The acyl group of one substrate is radioactively labeled in order to detect the product formed. In the examples which follow the acyl substituent of the acyl-CoA substrate is radiolabeled with ^14 C in the carboxyl group. LPAAT activity results in transfer of this acyl group from the acyl-CoA "donor" substrate to the LPA "acceptor" substrate, converting the latter into the product, phosphatidic acid (PA). LPAAT activity is measured as the amount of radioactive product formed in a given assay time. The PA product is radioactive as a result of the transferred radiolabeled acyl group at the central carbon atom of the molecule, and the quantity of PA formed may be determined by measuring radioactivity of the PA fraction. For this measurement, the PA is first separated from the acyl-CoA substrate by solvent partitioning, or by thin-layer chromatography (TLC).
(§2) 20 μl of the sample to be assayed for LPAAT activity is mixed with 217.5 μl of an assay ingredient mixture in a 4-ml, screw-cap vial. […] The incubation takes place in a water bath at 30° C., for 20-30 minutes.
(§3) To stop the assay, 0.25 ml of 1M KCl in 0.2M H3 PO4 is added to the vial. At this point, 40 μl BSA (bovine serum albumin, fraction V) at 1 mg/ml are added, followed by 0.75 ml of a solution of 67 μg/ml unlabeled PA (acting as a "carrier" to facilitate partitioning) in chloroform/methanol (2:1, v/v). The chain lengths of the PA acyl groups are chosen to correspond to those used in the assay substrates. Upon thorough mixing of these components the radiolabeled PA product of the LPAAT reaction partitions into the organic phase and away from the unreacted acyl-CoA and LPA. The vial is centrifuged briefly at low speed to facilitate the separation of organic (lower) and aqueous (upper) phases. The aqueous phase is then removed and discarded. The total radioactivity extracted into the organic phase is determined by liquid scintillation counting; a 100 μl sample of the organic phase is transferred to a 20 ml scintillation vial and allowed to dry, and scintillation fluid (3-5 ml) is added to the vial. The radioactivity of the sample, after subtraction of the "minus-enzyme" or "minus-LPA" radioactivities, is taken as an approximate indication of the amount of PA formed in the LPAAT-catalyzed reaction and therefore of LPAAT activity.
A more accurate estimation of the LPAAT activity may be obtained by separating the PA product from these contaminants by TLC. The remaining organic phase is applied to a silica TLC plate. […] After the plate has dried, the distribution of radioactivity is visualized and quantitated using an AMBIS radioanalytic imaging system (AMBIS Systems Inc., San Diego, Calif.). From prior application of standard lipid components the Rf of the PA is known. The radioactivity associated with the PA spot is expressed as a percentage of the total radioactivity of the assay sample loaded on the plate. This ratio provides an indication of the proportion of the scintillation counts which represent the PA product, and may be used to correct the counts to obtain the total PA radioactivity formed in the assay.
A P2 membrane homogenate from immature embryos of developing rapeseed (Brassica napus) seeds is prepared essentially as described above, except as noted below.

[2] = target: T1, LPAAT of transformant 5511-5 (Cocos nucifera, UniProt Q42670); experiment: LPAAT acyl-CoA specificity, P2 preparation of LPAAT-transformed line 5511-5; assay type: biochemical, Rapeseed; conditions: acyl-CoA donor varied at 5 μM, acceptor 12:0-LPA; 30 minute reaction
T1 construct: crude P2 membranes, host LPAAT also present
T1 sequence (Q42670 1-308): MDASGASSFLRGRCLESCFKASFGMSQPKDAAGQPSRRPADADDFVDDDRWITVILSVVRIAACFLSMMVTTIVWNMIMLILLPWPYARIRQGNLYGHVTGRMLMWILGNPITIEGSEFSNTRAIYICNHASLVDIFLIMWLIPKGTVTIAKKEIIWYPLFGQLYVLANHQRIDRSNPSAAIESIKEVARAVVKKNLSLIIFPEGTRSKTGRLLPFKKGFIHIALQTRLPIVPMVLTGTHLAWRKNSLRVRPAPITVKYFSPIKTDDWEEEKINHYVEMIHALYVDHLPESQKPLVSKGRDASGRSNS
Procedure: (§4) Detailed acyl-CoA chain-length specificity analysis of control P2 preparations and LPAAT-transformed line 5511-5 were determined as described above, using the original 30 minute reaction time. The acyl-CoA substrates for this analysis are present in methanol, and thus the assay also had the following modifications. The first solution placed in the assay vial was the volume of each radiolabeled acyl-CoA required for 5 μM final assay concentration. […] After mixing to redissolve the acyl-CoA off the vial wall, the reaction is started by addition of 25 μl of a 5-fold diluted P2 preparation and continued as before. Acyl-CoA substrates used in this analysis were 8:0, 10:0, 12:0, 14:0, 16:0, 18:0, and 18:1. The acceptor substrate in these assays was 12:0-LPA.

[3] = system: control rapeseed LPAAT; experiment: LPAAT acyl-CoA specificity, control P2 preparation; assay type: biochemical; conditions: acyl-CoA donor varied at 5 μM, acceptor 12:0-LPA; 30 minute reaction
Procedure: as §4

[4] = target: T2, coconut LPAAT (Cocos nucifera, UniProt Q42670); experiment: Acyl-CoA specificity of coconut LPAAT expressed in E. coli (pCGN5505), membrane fractions; assay type: biochemical; design: the SalI/BamHI fragment of pCGN5504 containing the entire coconut LPAAT encoding region; made in house; host or cells: E. coli BL21(DE3), membrane fractions; conditions: acceptor 12:0-LPA
T2 sequence (Q42670 1-308): T1 sequence (Q42670 1-308)
Procedure: The samples are centrifuged at 12,000 g for 15 minutes. The resulting supernatant fractions are centrifuged for two hours at 134,000 g, and the pelleted membranes suspended in 50 mM HEPES, 200 mM NaCl, 20% (w/v) glycerol, 5 mM β-mercaptoethanol, pH 7.5. Membrane fractions are assayed for acyl-CoA substrate specificities with 12:0-LPA and various acyl-CoA species as described in Example 1. Membrane preparations from cultures of E. coli and from immature coconut endosperm are combined with soybean phospholipids and diluted in 1M NaCl in Buffer A to simulate the pre-assay conditions of the solubilized enzyme.

[5] = system: bay LPAAT; experiment: LPAAT activity assay, California bay P2 membrane preparation; assay type: biochemical, Umbellularia californica; conditions: P2 membrane preparation; acyl-CoA donor varied, acceptor 12:0-LPA
Procedure: To assay for LPAAT activity, the sample is incubated with lysophosphatidic acid (LPA) and acyl-coenzyme A (acyl-CoA) substrates in buffered solution. The acyl substituents of the two substrates are chosen to correspond with the specificity of the enzyme being measured. […] The acyl group of one substrate is radioactively labeled in order to detect the product formed. In the examples which follow the acyl substituent of the acyl-CoA substrate is radiolabeled with ^14 C in the carboxyl group. LPAAT activity results in transfer of this acyl group from the acyl-CoA "donor" substrate to the LPA "acceptor" substrate, converting the latter into the product, phosphatidic acid (PA). LPAAT activity is measured as the amount of radioactive product formed in a given assay time. The PA product is radioactive as a result of the transferred radiolabeled acyl group at the central carbon atom of the molecule, and the quantity of PA formed may be determined by measuring radioactivity of the PA fraction. For this measurement, the PA is first separated from the acyl-CoA substrate by solvent partitioning, or by thin-layer chromatography (TLC).

[6] = target: T2, coconut LPAAT; experiment: LPAAT activity assay, coconut P2 membrane preparation; assay type: biochemical; design: white endosperm tissue lining the inside of the endocarp can be dissected and collected; from tissue; host or cells: immature coconut endosperm, P2 membrane fraction
Procedure: as §1, §2, §3
A more accurate estimation of the LPAAT activity may be obtained by separating the PA product from these contaminants by TLC. The remaining organic phase is applied to a silica TLC plate. Ascending chromatography is carried out for 50 minutes, using the solvent mixture chloroform/pyridine/88% formic acid (50:30:7, v/v). After the plate has dried, the distribution of radioactivity is visualized and quantitated using an AMBIS radioanalytic imaging system (AMBIS Systems Inc., San Diego, Calif.). From prior application of standard lipid components the Rf of the PA is known. The radioactivity associated with the PA spot is expressed as a percentage of the total radioactivity of the assay sample loaded on the plate. This ratio provides an indication of the proportion of the scintillation counts which represent the PA product, and may be used to correct the counts to obtain the total PA radioactivity formed in the assay. […]

[7] = system: LPCAT; experiment: LPCAT assay, coconut P2 preparation; assay type: biochemical, Cocos nucifera; conditions: substrates 12:0-CoA+12:0-LPC
Source text: Lysophosphatidylcholine (LPC) acyltransferase (LPCAT) is an enzyme analogous to LPAAT, involved in the biosynthesis of membrane lipids (phosphatidylcholine and derivatives thereof) instead of storage oil. The possibility that the activity measured in the LPAAT assay is not true LPAAT, but rather an inefficient action of LPCAT on the LPAAT substrates, can be tested by direct assay for LPCAT. For example, the LPAAT activity of the coconut P2 preparation with the substrate combination 12:0-CoA+12:0-LPA is readily measurable, whereas the LPCAT activity of the same preparation with the substrates 12:0-CoA+12:0-LPC is undetectable. […] The activities on long-chain substrates may represent either a single acyltransferase enzyme able to use LPA and LPC acceptor substrates, or discrete "long-chain" LPAAT and LPCAT enzymes which are present together.

[8] = system: coconut LPAAT; experiment: LPAAT activity assay, coconut P2 membrane preparation; assay type: biochemical, Cocos nucifera; conditions: coconut P2 preparation, same assay
Procedure: To assay for LPAAT activity, the sample is incubated with lysophosphatidic acid (LPA) and acyl-coenzyme A (acyl-CoA) substrates in buffered solution. The acyl substituents of the two substrates are chosen to correspond with the specificity of the enzyme being measured. […] LPAAT activity is measured as the amount of radioactive product formed in a given assay time. The PA product is radioactive as a result of the transferred radiolabeled acyl group at the central carbon atom of the molecule, and the quantity of PA formed may be determined by measuring radioactivity of the PA fraction. […]
To stop the assay, 0.25 ml of 1M KCl in 0.2M H3 PO4 is added to the vial. […] The total radioactivity extracted into the organic phase is determined by liquid scintillation counting; a 100 μl sample of the organic phase is transferred to a 20 ml scintillation vial and allowed to dry, and scintillation fluid (3-5 ml) is added to the vial. The radioactivity of the sample, after subtraction of the "minus-enzyme" or "minus-LPA" radioactivities, is taken as an approximate indication of the amount of PA formed in the LPAAT-catalyzed reaction and therefore of LPAAT activity. […]

Cpm PA Product, 5511-5 [2]: 2038 Cpm | utilization by E. coli expressed coconut LPAAT [4]: less well utilized | LPAAT Activity from Coconut ([6]; P2 membrane preparation, acyl-CoA donor varied, acceptor 12:0-LPA): 13 pmol PA formed/30 min assay
Compound: CCCCCCCCCCCCCCCCCC(=O)SCCNC(=O)CCNC(=O)[C@H](O)C(C)(C)COP(=O)(O)OP(=O)(O)OC[C@H]1O[C@@H](n2cnc3c(N)ncnc32)[C@H](O)[C@@H]1OP(=O)(O)O [18:0]
LPAAT Activity from Rapeseed [1]: 21 pmol PA formed/30 min assay | Cpm PA Product, Control [3]: 1514 Cpm | LPAAT Activity from Bay [5]: 6 pmol PA formed/30 min assay

Compound: CCCCCCCCCCCC(=O)OCC(O)COP(=O)([O-])OCC[N+](C)(C)C (stereo not drawn) [12:0-LPC, lauroyl-lysophosphatidylcholine]
LPCAT activity [7]: undetectable

Compound: 12:0-ACP: 12:0 acyl-ACP tested as LPAAT donor substrate
hydrolysis by the P2 preparation [8]: not hydrolyzed | utilization as LPAAT donor substrate instead of 12:0-CoA ([6]; coconut P2 preparation): will not utilize

Source: patent US5968791A, “Plant lysophosphatidic acid acyltransferases” (Calgene, Inc., priority 1995, dated 1999)
